Experimental data as given in patent publication US9315490B2, “2,5-substituted pyrimidines” (Grünenthal GmbH, priority 2014, dated 2016).

Key:
human PDE4B1 = biological target: T1, human PDE4B1 (Homo sapiens, UniProt Q07343); assay: TR-FRET assay using the LANCE Ultra cAMP kit to determine the activity of hPDE4B1; type: biochemical; conditions: test concentration 1 μM, read-out: Inhibition in % (inhibition of PDE4B)
T1 construct: host or cells: Sf9 cells
How it was run: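 Sf9-expressed recombinant human PDE4B1 (0.96 U) hydrolyses 500 nM cAMP for 30 minutes at room temperature in 50 mM Tris-HCl, 50 mM MgCl2, 5 mM DTT, pH 8.5. The reaction is stopped with IBMX, and residual cAMP is measured by TR-FRET (665/620 ratio). IC50 comes from ten concentrations.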

T1 sequence (Q07343 whole entry): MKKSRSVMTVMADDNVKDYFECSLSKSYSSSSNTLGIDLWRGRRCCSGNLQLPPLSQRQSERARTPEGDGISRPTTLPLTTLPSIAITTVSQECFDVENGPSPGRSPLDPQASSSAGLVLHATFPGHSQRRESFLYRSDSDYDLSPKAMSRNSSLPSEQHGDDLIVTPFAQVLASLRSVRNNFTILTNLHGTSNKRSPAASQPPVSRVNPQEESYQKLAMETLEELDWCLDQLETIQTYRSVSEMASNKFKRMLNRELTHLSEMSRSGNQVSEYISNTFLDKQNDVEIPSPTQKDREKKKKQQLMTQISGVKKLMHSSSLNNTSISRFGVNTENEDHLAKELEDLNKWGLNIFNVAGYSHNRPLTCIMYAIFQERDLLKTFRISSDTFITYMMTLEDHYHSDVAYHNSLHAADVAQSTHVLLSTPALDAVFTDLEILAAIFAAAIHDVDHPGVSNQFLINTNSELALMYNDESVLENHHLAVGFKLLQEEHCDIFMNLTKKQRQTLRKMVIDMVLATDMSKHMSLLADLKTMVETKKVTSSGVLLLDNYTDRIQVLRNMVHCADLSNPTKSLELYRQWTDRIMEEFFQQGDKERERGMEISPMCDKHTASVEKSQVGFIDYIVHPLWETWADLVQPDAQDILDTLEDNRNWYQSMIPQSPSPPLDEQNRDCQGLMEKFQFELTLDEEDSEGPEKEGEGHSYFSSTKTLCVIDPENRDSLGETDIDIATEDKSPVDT

## O=C(c1ccc2c(C3CC3)cn(-c3ncc(-c4ccccc4F)cn3)c2c1)N1CCOCC1 [Example 354, (3-Cyclopropyl-1-(5-(2-fluorophenyl)pyrimidin-2-yl)-1H-indol-6-yl)(morpholino) methanone]
Human PDE4B1
  inhibition at 1 µM: 71%
other
  melting point: 177 to 181 °C
